# From paper PMC5696560 (Bioorganic & Medicinal Chemistry Letters, 2017)
# How the values were obtained:
# M.tb strain H37Rv [1] = assay: MABA: inhibition of growth of M.tb H37Rv under aerobic (replicating) conditions; format: cell-based; conditions: for MIC90 / MIC: Mycobacterium tuberculosis, H37RV; for MIC: read-out: MIC90 MABA; for anti-M.tb activity (in words): M.tb H37Rv, comparison with 1
# M.tb strain H37Rv [2] = assay: LORA: inhibition of growth of M.tb H37Rv under non-replicating conditions; format: cell-based; conditions: Mycobacterium tuberculosis
# Protocol: The compounds were evaluated for their inhibition of growth (measured as MIC90 values in µg/mL) against M.tb (strain H37Rv) under both replicating (MABA)[16] or non-replicating (LORA)[17] conditions. […] In a search for less lipophilic analogues, we prepared and evaluated compounds where this phenyl B-ring unit was replaced with different heterocycles of varying lipophilicity (Table 1).
# [3] = human, microsomes
# in vitro = conditions: human, human liver microsomes
# CYP 3A4 = CYP 3A4 (Homo sapiens, UniProt P08684); assay: Inhibition of CYP 3A4; format: in vitro ADME; conditions: 20 min exposure
# Sequence of CYP 3A4 (P08684 whole entry, species assumed): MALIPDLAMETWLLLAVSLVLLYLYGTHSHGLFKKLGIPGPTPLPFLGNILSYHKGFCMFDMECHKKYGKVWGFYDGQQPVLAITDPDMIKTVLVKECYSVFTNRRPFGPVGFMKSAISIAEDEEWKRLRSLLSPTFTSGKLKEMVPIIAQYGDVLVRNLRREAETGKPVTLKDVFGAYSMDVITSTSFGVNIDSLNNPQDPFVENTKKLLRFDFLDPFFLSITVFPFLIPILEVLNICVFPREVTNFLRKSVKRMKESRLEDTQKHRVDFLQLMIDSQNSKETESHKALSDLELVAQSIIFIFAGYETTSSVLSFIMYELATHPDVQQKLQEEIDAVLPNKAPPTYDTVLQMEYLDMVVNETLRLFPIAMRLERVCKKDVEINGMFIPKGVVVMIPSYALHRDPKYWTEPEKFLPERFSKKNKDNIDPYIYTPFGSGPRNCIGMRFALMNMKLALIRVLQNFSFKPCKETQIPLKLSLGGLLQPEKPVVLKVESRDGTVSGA
# [4] = rat, in vivo
# M.tb strain H37Rv [5] = assay: MICs determined at Tibotec (slightly different protocol); format: cell-based; conditions: Mycobacterium tuberculosis, MICs determined at Tibotec (Mechelen, Belgium), read-out: MIC90 (MABA, footnote d)
# Description: Given that good activity had been reported for furan 2 (albeit in M. smegmatis),[11] we evaluated a series of both 2- and 3-furyl analogues bearing different C-unit substituents.
SMILES,MIC90 (M.tb strain H37Rv [1]) [µg/mL],MIC90 (M.tb strain H37Rv [2]) [µg/mL],MIC90 (M.tb strain H37Rv [5]) [µg/mL],also measured
COc1cccc([C@](O)(CCN(C)C)[C@@H](c2cc3cc(Br)ccc3nc2OC)c2cc(C)sc2C)c1OC (racemic) [Compound 4],0.5,0.27,,MIC (M.tb strain H37Rv [1]): 0.05 to 0.58 µg/mL
COc1nc2ccc(Br)cc2cc1[C@@H](c1cc(C)sc1C)[C@@](O)(CCN(C)C)c1cncc(C)c1 (racemic) [Compound 6],0.58,0.3,,MIC (M.tb strain H37Rv [1]): 0.05 to 0.58 µg/mL
"COc1nc2ccc(Br)cc2cc1[C@@H](c1cc(C)sc1C)[C@@](O)(CCN(C)C)c1cccc(C#N)c1 [Compound 3, 3-(1-(6-Bromo-2-methoxyquinolin-3-yl)-4-(dimethylamino)-1-(2,5-dimethylthiophen-3-yl)-2-hydroxybutan-2-yl)benzonitrile]",0.12,,,MIC (M.tb strain H37Rv [1]): 0.05 to 0.58 µg/mL
COc1cccc([C@](O)(CCN(C)C)[C@@H](c2cc3cc(Br)ccc3nc2OC)c2cc(C)sc2C)n1 [Compound 5],0.12,0.15,,MIC (M.tb strain H37Rv [1]): 0.05 to 0.58 µg/mL
COc1nc2ccc(C#N)cc2cc1[C@@H](c1cc(C)sc1C)[C@@](O)(CCN(C)C)c1cncc(C)c1 [Compound 7],1.94,1.1,,anti-M.tb activity (in words) (M.tb strain H37Rv [1]): less active; MIC (M.tb strain H37Rv [1]): 0.05 to 0.58 µg/mL
COc1nc2ccc(Br)cc2cc1[C@@H](c1cc(C)sc1C)[C@@](O)(CCN(C)C)c1cccnc1OC [Compound 8],0.12,0.2,,MIC (M.tb strain H37Rv [1]): 0.05 to 0.58 µg/mL
COc1nc2ccc(Br)cc2cc1[C@@H](c1cc(C)c(C)s1)[C@@](O)(CCN(C)C)c1cccc(F)c1 [Compound 9],0.06,0.11,,anti-M.tb activity (in words) (M.tb strain H37Rv [1]): comparable activity to 1; MIC (M.tb strain H37Rv [1]): 0.05 to 0.58 µg/mL; Clint [3]: 12 µL/min/mg/protein; half-life (in vitro): 1 h; IC50 (CYP 3A4): 10 µM; F(%) oral bioavailability [4]: 48%
COc1nc2ccc(C#N)cc2cc1[C@@H](c1cc(C)c(C)s1)[C@@](O)(CCN(C)C)c1cccc(F)c1 [Compound 10],0.05,0.2,,anti-M.tb activity (in words) (M.tb strain H37Rv [1]): equally potent; MIC (M.tb strain H37Rv [1]): 0.05 to 0.58 µg/mL
COc1nc2ccc(Br)cc2cc1C(c1ccc(C)s1)C(O)(CCN(C)C)c1cccc(F)c1 (stereo not shown) [Compound 11],,,0.47,
COc1nc2ccc(Br)cc2cc1[C@@H](c1ccc(C)s1)[C@@](O)(CCN(C)C)c1cccnc1OC [Compound 12],0.22,0.52,,anti-M.tb activity (in words) (M.tb strain H37Rv [1]): effective inhibitors
COc1ccc([C@H](c2cc3cc(Br)ccc3nc2OC)[C@@](O)(CCN(C)C)c2cccnc2OC)s1 [Compound 13],0.24,0.53,,anti-M.tb activity (in words) (M.tb strain H37Rv [1]): effective inhibitors
COc1ccc(C(c2cc3cc(C#N)ccc3nc2OC)C(O)(CCN(C)C)c2cccc(F)c2)s1 (stereo not shown) [Compound 14],,,0.7,
COc1nc2ccc(Br)cc2cc1C(c1ccco1)C(O)(CCN(C)C)c1cccc(F)c1 (stereo not shown) [Compound 15],,,0.74,
COc1nc2ccc(C#N)cc2cc1C(c1ccco1)C(O)(CCN(C)C)c1cccc(F)c1 (stereo not shown) [Compound 16],,,1.79,
COc1nc2ccc(Br)cc2cc1C(c1ccco1)C(O)(CCN(C)C)c1cccc(OC(F)(F)F)c1 (stereo not shown) [Compound 17],,,0.76,
COc1cccc(C(O)(CCN(C)C)C(c2ccco2)c2cc3cc(Br)ccc3nc2OC)c1OC (stereo not shown) [Compound 18],,,0.71,
COc1nc2ccc(Br)cc2cc1C(c1ccco1)C(O)(CCN(C)C)c1cccc2c1OCO2 (stereo not shown) [Compound 19],,,0.69,
COc1nc2ccc(Br)cc2cc1C(c1ccco1)C(O)(CCN(C)C)c1ccccn1 (stereo not shown) [Compound 20],,,1.95,
COc1nc2ccc(Br)cc2cc1C(c1ccco1)C(O)(CCN(C)C)c1cccc(C#N)c1 (stereo not shown) [Compound 21],,,1.96,
"COc1nc2ccc(Br)cc2cc1C(c1ccoc1)C(O)(CCN(C)C)c1cccc(F)c1 (stereo not shown) [Compound 22, 1-(6-Bromo-2-methoxyquinolin-3-yl)-4-(dimethylamino)-2-(3-fluorophenyl)-1-(furan-3-yl)butan-2-ol]",,,0.74,
COc1nc2ccc(C#N)cc2cc1C(c1ccoc1)C(O)(CCN(C)C)c1cccc(F)c1 (stereo not shown) [Compound 23],,,1.08,
COc1nc2ccc(Br)cc2cc1C(c1ccoc1)C(O)(CCN(C)C)c1cccc(F)n1 (stereo not shown) [Compound 24],,,0.68,

SMILES,MIC90 (M.tb strain H37Rv [1]) [µg/mL],MIC90 (M.tb strain H37Rv [2]) [µg/mL],MIC90 (M.tb strain H37Rv [5]) [µg/mL],also measured
COc1nc2ccc(Br)cc2cc1C(c1ccoc1)C(O)(CCN(C)C)c1cccc(OC(F)(F)F)c1 (stereo not shown) [Compound 25],,,0.76,
COc1cccc(C(O)(CCN(C)C)C(c2ccoc2)c2cc3cc(Br)ccc3nc2OC)c1OC (stereo not shown) [Compound 26],,,1.16,
COc1nc2ccc(Br)cc2cc1C(c1ccoc1)C(O)(CCN(C)C)c1cccc2c1OCO2 (stereo not shown) [Compound 27],,,0.9,
COc1nc2ccc(Br)cc2cc1C(c1ccoc1)C(O)(CCN(C)C)c1ccccn1 (stereo not shown) [Compound 28],,,1.8,
COc1ncccc1C(c1cc2cc(Br)ccc2nc1OC)C(O)(CCN(C)C)c1cccc(F)c1 (stereo not shown) [Compound 29],,,0.12,
COc1ncccc1[C@H](c1cc2cc(Br)ccc2nc1OC)[C@@](O)(CCN(C)C)c1cccc(C)c1 [Compound 30],0.13,0.25,,
COc1ncccc1[C@H](c1cc2cc(C#N)ccc2nc1OC)[C@@](O)(CCN(C)C)c1cccc(C)c1 [Compound 31],0.3,0.15,,
COc1ncccc1[C@H](c1cc2cc(Br)ccc2nc1OC)[C@@](O)(CCN(C)C)c1cccc(C#N)c1 [Compound 33],0.34,0.75,,
COc1ncccc1[C@H](c1cc2cc(C#N)ccc2nc1OC)[C@@](O)(CCN(C)C)c1cccc(C#N)c1 [Compound 34],0.38,0.82,,
COc1nc2ccc(Br)cc2cc1[C@@H](c1cccnc1N(C)C)[C@@](O)(CCN(C)C)c1cccc(F)c1 [Compound 35],0.18,0.2,,Clint [3]: 45 µL/min/mg/protein; half-life (in vitro): 0.25 h; IC50 (CYP 3A4): > 50 µM
COc1nc2ccc(Br)cc2cc1[C@@H](c1ccc(N(C)C)nc1)[C@@](O)(CCN(C)C)c1cccc(F)c1 [Compound 36],0.08,0.15,,Clint [3]: 38 µL/min/mg/protein; half-life (in vitro): 0.3 h; IC50 (CYP 3A4): > 10 µM; F(%) oral bioavailability [4]: 45%
CCN(CC)c1ccc([C@H](c2cc3cc(Br)ccc3nc2OC)[C@@](O)(CCN(C)C)c2cccc(F)c2)cn1 [Compound 37],0.02,,,
COc1nc2ccc(Br)cc2cc1[C@@H](c1ccc(SC)nc1)[C@@](O)(CCN(C)C)c1cccc(F)c1 [Compound 38],0.14,0.37,,
CCSc1ccc([C@H](c2cc3cc(Br)ccc3nc2OC)[C@@](O)(CCN(C)C)c2cccc(F)c2)cn1 [Compound 39],0.14,0.15,,Clint [3]: 11 µL/min/mg/protein; half-life (in vitro): 1.07 h; IC50 (CYP 3A4): 10 µM; F(%) oral bioavailability [4]: 30%
COc1cccc([C@](O)(CCN(C)C)[C@H](c2cncc(C)c2)c2cc3cc(Br)ccc3nc2OC)c1 [Compound 40],1.9,2.2,,
COc1nc2ccc(Br)cc2cc1[C@@H](c1cncc(C)c1)[C@@](O)(CCN(C)C)c1cccc(C#N)c1 [Compound 41],1.32,3.38,,
COc1nc2ccc(Br)cc2cc1[C@@H](c1ccnc(OC)c1OC)[C@@](O)(CCN(C)C)c1cccc(F)c1 [Compound 44],0.02,0.07,,
COc1nc2ccc(C#N)cc2cc1[C@@H](c1ccnc(OC)c1OC)[C@@](O)(CCN(C)C)c1cccc(C)c1 [Compound 46],0.15,0.14,,
COc1cccc([C@](O)(CCN(C)C)[C@@H](c2cc3cc(Br)ccc3nc2OC)c2ccnc(OC)c2OC)c1 [Compound 47],< 0.02,,,anti-M.tb activity (in words) (M.tb strain H37Rv [1]): retain the potency of 1
COc1nc2ccc(Br)cc2cc1[C@@H](c1ccnc(OC)c1OC)[C@@](O)(CCN(C)C)c1cccc(OC(F)F)c1 [Compound 48],< 0.02,,,anti-M.tb activity (in words) (M.tb strain H37Rv [1]): retain the potency of 1; Clint [3]: 11 µL/min/mg/protein; half-life (in vitro): 1.02 h; IC50 (CYP 3A4): > 10 µM
COc1cccc([C@](O)(CCN(C)C)[C@@H](c2cc3cc(Br)ccc3nc2OC)c2ccnc(OC)c2OC)c1OC [Compound 50],,,0.21,
